Each structure is given as a SMILES string. Some results are limits rather than exact numbers.

Test [1] addresses T1, P2X7 receptor (Rattus norvegicus, UniProt Q64663).
T1 construct: rP2X7 (IC50; nM); other: rP2X7; HEK-293 cells stably transfected with P2X7 receptor, Bz-ATP at EC80, Fluo-8 NW; potency
T1 sequence (Q64663 1-595): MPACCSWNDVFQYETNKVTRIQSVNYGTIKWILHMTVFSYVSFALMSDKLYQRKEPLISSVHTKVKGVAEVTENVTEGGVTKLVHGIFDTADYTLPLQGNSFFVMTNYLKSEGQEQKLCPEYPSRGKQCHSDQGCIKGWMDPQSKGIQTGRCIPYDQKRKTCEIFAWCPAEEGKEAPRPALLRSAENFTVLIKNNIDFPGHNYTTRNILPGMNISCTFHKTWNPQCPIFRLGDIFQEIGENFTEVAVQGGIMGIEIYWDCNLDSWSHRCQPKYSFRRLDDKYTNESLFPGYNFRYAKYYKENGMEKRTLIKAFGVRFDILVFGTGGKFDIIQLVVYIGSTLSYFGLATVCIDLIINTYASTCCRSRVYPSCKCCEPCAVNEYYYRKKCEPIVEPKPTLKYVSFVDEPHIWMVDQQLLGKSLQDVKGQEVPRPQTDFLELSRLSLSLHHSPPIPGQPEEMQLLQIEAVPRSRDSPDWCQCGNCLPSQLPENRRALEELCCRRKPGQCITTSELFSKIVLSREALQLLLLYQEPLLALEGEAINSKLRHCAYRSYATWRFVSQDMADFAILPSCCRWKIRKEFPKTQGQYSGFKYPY
The test is described as follows: Screen Quest Fluo-8 No Wash Calcium Assay (Bz-ATP evoked Ca2+ influx, FLIPR). The settings on record: rP2X7; HEK-293 cells stably transfected with P2X7 receptor, Bz-ATP at EC80, Fluo-8 NW; potency ranges A-D. The class given is cell-based. The method in brief:
(§1)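 HEK-293 cells stably expressing P2X7 were loaded with Fluo-8 NW for 1 h at RT, then given compound, and 5 min later Bz-ATP at EC80. Fluorescence was read by FLIPR in low divalent cation buffer (0.3 mM Ca2+, 0 mM Mg2+). IC50 came from percent inhibition relative to reference antagonist A438079.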

The target in test [2] is T2, P2X7 receptor (Mus musculus, UniProt Q9Z1M0).
T2 construct: mP2X7 (IC50; nM); other: mP2X7; HEK-293 cells stably transfected with P2X7 receptor, Bz-ATP at EC80, Fluo-8 NW; potency
T2 sequence (Q9Z1M0 1-595): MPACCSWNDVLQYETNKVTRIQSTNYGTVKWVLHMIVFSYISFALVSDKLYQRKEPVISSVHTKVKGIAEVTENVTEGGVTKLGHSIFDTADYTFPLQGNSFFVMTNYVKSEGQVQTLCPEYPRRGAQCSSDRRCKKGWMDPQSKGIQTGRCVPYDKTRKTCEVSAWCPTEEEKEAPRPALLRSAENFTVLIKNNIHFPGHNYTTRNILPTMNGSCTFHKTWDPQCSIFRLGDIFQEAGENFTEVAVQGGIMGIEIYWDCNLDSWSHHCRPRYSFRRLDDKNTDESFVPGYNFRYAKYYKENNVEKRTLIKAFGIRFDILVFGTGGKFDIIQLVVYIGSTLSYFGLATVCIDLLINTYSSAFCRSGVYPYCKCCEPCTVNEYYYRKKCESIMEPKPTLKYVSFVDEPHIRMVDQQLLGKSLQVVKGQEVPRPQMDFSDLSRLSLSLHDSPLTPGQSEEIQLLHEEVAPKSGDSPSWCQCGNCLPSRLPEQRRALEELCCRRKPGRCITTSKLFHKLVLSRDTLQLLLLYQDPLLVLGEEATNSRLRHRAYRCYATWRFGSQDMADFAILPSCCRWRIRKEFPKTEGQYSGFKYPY
The description is as above. The following applies: mP2X7; HEK-293 cells stably transfected with P2X7 receptor, Bz-ATP at EC80, Fluo-8 NW; potency ranges A-D. The class given is cell-based. The method in brief: as §1

On to `O=c1snc(Cc2c(F)cccc2Cl)n1CC1CCC(F)(F)CC1` [Example 141, 3-[(2-chloro-6-fluorophenyl)methyl]-4-[(4,4-difluorocyclohexyl)methyl]-4,5-dihydro-1,2,4-thiadiazol-5-one], for which the IC50 in test [1] and in test [2] was less than 200 nM each time.
As for `O=c1onc(Cc2c(F)cccc2Cl)n1CC1CCC(F)(F)CC1` [Example 84, 3-[(2-chloro-6-fluorophenyl)methyl]-4-[(4,4-difluorocyclohexyl)methyl]-4,5-dihydro-1,2,4-oxadiazol-5-one], the IC50 in test [1] and in test [2] was less than 200 nM throughout.
Take `O=c1snc(Cc2c(F)cccc2Cl)n1CC1CCCCC1` [Example 140, 3-[(2-chloro-6-fluorophenyl)methyl]-4-(cyclohexylmethyl)-4,5-dihydro-1,2,4-thiadiazol-5-one]: the IC50 – broadly, the concentration needed to halve the response being measured – in test [1] was in the range of 200 to 1000 nM; in test [2] it was 1000 to 10000 nM.
The matching figures for `O=c1onc(CC2CCC(F)(F)CC2)n1Cc1c(F)cccc1Cl` [Example 132, 4-[(2-chloro-6-fluorophenyl)methyl]-3-[(4,4-difluorocyclohexyl)methyl]-4,5-dihydro-1,2,4-oxadiazol-5-one]: less than 200 nM and less than 200 nM.
Regarding `O=c1onc(Cc2c(F)cccc2Cl)n1CC12CCC(CC1)C2` [Example 91, 4-{bicyclo [2.2.1]heptan-1-ylmethyl}-3-[(2-chloro-6-fluorophenyl)methyl]-4,5-dihydro-1,2,4-oxadiazol-5-one], the IC50 in test [1] is less than 200 nM; in test [2] it was 200 to 1000 nM.
As for `O=c1onc(Cc2c(F)cccc2Cl)n1Cc1ccc(Cl)cc1` [Example 65, 3-[(2-chloro-6-fluorophenyl)methyl]-4-[(4-chlorophenyl)methyl]-4,5-dihydro-1,2,4-oxadiazol-5-one], the IC50 fell in the range of 200 to 1000 nM in test [1] and 1000 to 10000 nM in test [2].
Turning to `Cc1noc(C)c1Cc1noc(=O)n1CC1CCCCC1` [Example 210, 4-(cyclohexylmethyl)-3-[(dimethyl-1,2-oxazol-4-yl)methyl]-4,5-dihydro-1,2,4-oxadiazol-5-one], the results for the IC50 in test [1] and in test [2] were 200 to 1000 nM and 1000 to 10000 nM, respectively.
The matching figures for `O=c1onc(Cc2c(F)cccc2Cl)n1CC1CCCCC1(F)F` (centres unmarked) [Example 97, 3-[(2-chloro-6-fluorophenyl)methyl]-4-[(2,2-difluorocyclohexyl)methyl]-4,5-dihydro-1,2,4-oxadiazol-5-one]: less than 200 nM and 200 to 1000 nM.
For `Cc1noc(C)c1Cc1noc(=O)n1CC1CCC(F)(F)CC1` [Example 211, 4-[(4,4-difluorocyclohexyl)methyl]-3-[(dimethyl-1,2-oxazol-4-yl)methyl]-4,5-dihydro-1,2,4-oxadiazol-5-one], the figures for the IC50 in test [1] and in test [2] were 200 to 1000 nM and 1000 to 10000 nM, respectively.
The matching figures for `O=c1onc(Cc2c(F)cccc2Cl)n1CC1CC2CCC1C2` (centres unmarked) [Example 88, 4-{bicyclo[2.2.1]heptan-2-ylmethyl}-3-[(2-chloro-6-fluorophenyl)methyl]-4,5-dihydro-1,2,4-oxadiazol-5-one]: less than 200 nM and 200 to 1000 nM.
With `O=c1onc(Cc2c(F)cccc2Cl)n1CCC1CCCCC1` [Example 142, 3-(2-chloro-6-fluorobenzyl)-4-(2-cyclohexylethyl)-1,2,4-oxadiazol-5(4H)-one], the IC50 in test [1] and in test [2] was 200 to 1000 nM throughout.
`O=c1onc(Cc2c(F)cccc2Cl)n1Cc1ccc(F)cc1F` [Example 61, 3-[(2-chloro-6-fluorophenyl)methyl]-4-[(2,4-difluorophenyl)methyl]-4,5-dihydro-1,2,4-oxadiazol-5-one]: the IC50 in test [1] fell in the range of 200 to 1000 nM; in test [2] it was 1000 to 10000 nM.
Regarding `O=c1onc(Cc2ccc(F)cc2)n1Cc1c(F)cccc1Cl` [Example 1, 4-[(2-chloro-6-fluorophenyl)methyl]-3-[(4-fluorophenyl)methyl]-4,5-dihydro-1,2,4-oxadiazol-5-one], the IC50 was in the range of 200 to 1000 nM in test [1] and 1000 to 10000 nM in test [2].
`O=c1onc(Cc2cccc(F)c2)n1Cc1c(F)cccc1Cl` [Example 81, 4-[(2-chloro-6-fluorophenyl)methyl]-3-[(3-fluorophenyl)methyl]-4,5-dihydro-1,2,4-oxadiazol-5-one]: the IC50 in test [1] was 200 to 1000 nM; in test [2], 1000 to 10000 nM.
For `CC1(C)CCC(Cn2c(Cc3c(F)cccc3Cl)noc2=O)CC1` [Example 86, 3-[(2-chloro-6-fluorophenyl)methyl]-4-[(4,4-dimethylcyclohexyl)methyl]-4,5-dihydro-1,2,4-oxadiazol-5-one], the concentration for half-maximal inhibition (IC50) in test [1] and in test [2] was 200 to 1000 nM throughout.
`O=c1onc(Cc2c(F)cccc2Cl)n1CC1CCCC1` [Example 85, 3-[(2-chloro-6-fluorophenyl)methyl]-4-(cyclopentylmethyl)-4,5-dihydro-1,2,4-oxadiazol-5-one]: the IC50 is less than 200 nM in test [1] and 200 to 1000 nM in test [2].

The record behind these values is patent publication US11623919B2, “Heterocyclic P2X7 antagonists” (AXXAM S.P.A., priority 2017, dated 2023).
